Source: patent US20220364141A1, “Tryptase Activity Measurement Substrate” (National University Corporation Tokyo University of …, priority 2019, published 2022)
The star is where a group is joined. AMC = Cc1cc(=O)oc2cc(N*)ccc12; Tos = Cc1ccc(S(=O)(=O)*)cc1

test system: Tryptase in Serum; assay: Human serum enzyme activity with Suc-Ala-Ala-Arg-MCA-linked poly(L-lysine) substrate after addition of inhibitors; format: biochemical; settings: human serum; Suc-Ala-Ala-Arg-MCA-linked poly(L-lysine) substrate
Description: Suc-Ala-Ala-Arg-MCA-linked poly(L-lysine) prepared in Example 2 was used to test whether to be able to specifically measure tryptase activity in serum.
(1) 20.0 mg of Suc-Ala-Ala-Arg-MCA-linked poly(L-lysine) was dissolved in 50 mL of 50 mM Tris-HCl (pH 8.0). (2) 2 μL of commercially available human serum (manufactured by BioWest) was mixed with 2 μL of PBS(−) (pH 7.4) (control) or 2 μL of 10 μM nafamostat (tryptase inhibitor, manufactured by Tokyo Chemical Industry Co., Ltd.) or 2 μL of 10 U/mL hirudin (thrombin inhibitor, manufactured by Sigma-Aldrich Co., LLC). After a lapse of 10 minutes at room temperature, each mixed solution was added to 100 μL of the solution prepared in the step (1). Immediately thereafter, enzyme activity was measured.

Molecule	inhibition of enzyme activity in serum detected with the macromolecular substrate (in words)
N=C(N)c1ccc2cc(OC(=O)c3ccc(N=C(N)N)cc3)ccc2c1 [nafamostat]	completely inhibited

same assay, conditions: relative value with serum + PBS(-) defined as 100; human serum preincubated 10 min with 2 μL of 10 μM nafamostat or 10 U/mL hirudin; substrate Suc-Ala-Ala-Arg-MCA-linked poly(L-lysine)

Molecule	Enzyme activity
N=C(N)c1ccc2cc(OC(=O)c3ccc(N=C(N)N)cc3)ccc2c1 [nafamostat]	0
hirudin	83

test system: human lung tryptase; assay: Screening of tryptase substrates: responsiveness of fluorescent MCA substrates to tryptase; format: biochemical; settings: relative value with the sensitivity of ^iBoc-Ala-Ala-Arg-MCA defined as 100; 100 μM substrate, 50 mM Tris-HCl pH 8.0, ex 365 nm / em 470 nm
Description: In addition to reference to past documents as described above, ^iBoc-Y-X-Arg-MCA in which Gly, Ala, Abu, Val, Pro, Phe or hydrophilic Lys having distinctive bulkiness was introduced to positions P2 and P3 was synthesized as listed in Table 1 by a peptide library approach, and activity measurement was performed. Abu (2-aminobutyric acid) is a non-protein amino acid, but was added as an optimum peptide sequence search tool.
The activity measurement was performed by the following method.
(1) A stock of a substrate solution was provided as a 2.0 mM solution in DMSO. (2) The stock of the substrate solution was diluted 20-fold with 50 mM Tris-HCl (pH 8.0) to prepare a 100 μM solution. 100 μL thereof was added to a polypropylene microtube, further 2 μL of a commercially available tryptase solution (manufactured by Cappel Laboratories, Inc.) was added thereto, and the tube was lightly vortexed for mixing. Immediately thereafter, change in fluorescence intensity at 470 nm was measured at an excitation wavelength of 365 nm using an enzyme activity measurement apparatus (manufactured by Peptide Support Ltd., prototype).

Molecule	Tryptase activity
Cc1cc(=O)oc2cc(NC(=O)C(CCCNC(=N)N)NC(=O)OCC(C)C)ccc12 (stereo not drawn) [^iBoc-Arg-MCA]	0
Tos-Gly-Pro-Arg-{AMC} [reference compound]	25
^iBoc-Abu-Abu-Arg-MCA	69
^iBoc-Abu-Ala-Arg-MCA	109
^iBoc-Ala-Abu-Arg-MCA	80
^iBoc-Ala-Ala-Arg-MCA	100
^iBoc-Ala-Lys-Arg-MCA	11
^iBoc-Ala-Phe-Arg-MCA	1
^iBoc-Ala-Val-Arg-MCA	50
^iBoc-Gly-Gly-Arg-MCA	0
^iBoc-Gly-Pro-Arg-MCA	9
^iBoc-Lys-Ala-Arg-MCA	167
^iBoc-Lys-Gly-Arg-MCA	75
^iBoc-Lys-Pro-Arg-MCA	175
^iBoc-Phe-Ala-Arg-MCA	62
^iBoc-Phe-Gly-Arg-MCA	5
^iBoc-Phe-Ser-Arg-MCA	11
^iBoc-Val-Ala-Arg-MCA	53
^iBoc-Val-Pro-Arg-MCA	20

same assay, conditions: screening of Table 1

Molecule	tryptase responsiveness compared with ^iBoc-Ala-Ala-Arg-MCA (in words)
^iBoc-Abu-Ala-Arg-MCA	higher tryptase responsiveness than that of ^iBoc-Ala-Ala-Arg-MCA
^iBoc-Lys-Ala-Arg-MCA	higher tryptase responsiveness than that of ^iBoc-Ala-Ala-Arg-MCA
^iBoc-Lys-Pro-Arg-MCA	tryptase responsiveness slightly less than two times higher than that of ^iBoc-Ala-Ala-Arg-MCA
